Source: patent US20220287949A1, “SAFE PARTICLES FOR THE INTRODUCTION OF USEFUL CHEMICAL AGENTS IN THE BODY WITH CONTROLLED ACTIVATION” (priority 2019, published 2022)
≈ marks a conversion by molar mass, not a printed value. Read-outs that look alike come from different tables or passages of the source. Blank lines part the entries; values can stand above or below the compound they belong to.

Experiments:
[1] = test system: NIH 3T3 murine fibroblasts; experiment: Cytotoxicity of particle components (MTS assay); assay type: cell-based; settings: dye solution in ethanol, NIH 3T3, 24 hours, 37° C.
Protocol: Dye components were each dissolved in ethanol (molecular grade ethanol from Fisher Scientific) to produce a stock solution at 1 mM (B141, M071, and Epolight™ 1117) or 100 μM (C161). For each stock solution, additional dilutions were made at 2×, 4×, 8×, 16×, 32×, 64×, and 128×, and each concentration was tested for cytotoxicity against NIH 3T3 murine fibroblasts in a cytotoxicity test. NIH-3T3 cells were plated in a 96-well culture plate at a density of 10,000 cells per well and allowed to adhere to the surface overnight. Different concentrations of the dye solution were added to the NIH 3T3 cells and incubated for 24 hours at 37° C., in a 5% CO2 incubator. Controls for the cytotoxicity experiment included “live” and “dead” (cells were killed due to osmotic pressure by adding D.I. water). “Live” cells had nothing except cell culture media containing 10% FBS added to them and were used to obtain the 100% viability data. The “dead” control was used to obtain the 0% viability data point. After 24 hours, cells were washed twice with 1× PBS containing calcium and magnesium and 100 μL of media was added at the end. To a final volume of 100 μL of media in the wells, 20 μL of PMS activated MTS reagent was added and incubated for 90 minutes. At the end of the 90 minutes, absorbance was measured at 490 nm using a plate reader (Spectramax M2e, Molecular Devices). Viability of cells was calculated using the absorbance measured for the “live” (100%) and “dead” (0%) controls and the results of % viability estimated from the absorbance for the different concentrations of the dyes were plotted in MS Excel using linear regression curve fitting algorithm to obtain the IC30. All the samples were tested in triplicate and results were averaged over the three repeats.

[2] = Laser triggered changing of color of tattoo particles in gelatin; settings: for Abs: M071 at 458 nm, IR at 1064 nm
Protocol: Procedure: A solution of gelatin was prepared by adding Knox gelatin (1.0 g) to cold water (12.5 g) in a 100 mL glass jar equipped with a magnetic stir bar. The gelatin was stirred 15-30 minutes and then hot water was added (70° C.) until the total weight was 50.0 g. This gelatin was then used in 2.0 gm aliquots. Colorant loaded PMMA-BMA B-805 copolymer particles with 25% VTMS shells as prepared in Example lb above (20-30 mg) were then added to the gelatin solution (2.0 g) and vortexed in a 4 dram vial. The suspension of the tattoo particles in gelatin was then sonicated for 15-30 minutes before transferring to a 5 cm plastic culture dish. The gelatin suspension was spread evenly and allowed to set. It was then covered and stored at 6° C. until used.
Laser exposure was accomplished as follows: The cover for the culture dish was removed and a 5 cm clear plastic cover was cut and fit over the gelatin to prevent splatter. The top surface was then completely irradiated at 1064 nm with a 5 mm spot using fluences ranging from 2.46 J/cm^2 to 5.09 J/cm^2 using a Nd-YAG Q-switched Lutronic laser (Lutronic Spectra™ VRM II Laser with four distinct Q-switched mode wavelengths: 1064 nm, 532 nm, 585 nm, 650 nm, nano second pulse width, and spectra peak energy: 60 MW, 120 MW and 240 MW).
After irradiating the top surface, the culture dish was covered with its lid, turned over and irradiated from the opposite side to reach any unexposed particles visible only from the bottom side.
Following the complete irradiation, the plastic cover was removed and any adhered gelatin was transferred to a 10 ml centrifuge tube. The gelatin from the culture dish was also removed and transferred to the centrifuge tube with the aid of about 5 ml of water. The culture tube was rinsed with water and any suspended gelatin transferred by pipette to the centrifuge tube. The material in the tube was sonicated until the gelatin was redissolved (20-30 minutes, about 40° C.).
The sample was centrifuged for 20 minutes and the supernatant was removed. The recovered particles were slurried again with water, centrifuged, and the wash water removed. The resultant particles were dried in vacuum at room temperature and analyzed spectroscopically for the presence of dyes as in 2b above.
The standard fluence for removal of tattoo color in designs using these particles is 3.51 J/cm^2. 5.09 J/cm^2 is the maximum fluence on the Lutronic laser using a 5 mm spot. The laser triggered color changing tests were performed on 2 μm 5:1 Y197 (12.5% Y197:6.25% IR 1117), 2 μm 7:1 M071 (6.25% M071, 8.0 wt. % IR 1117), 2 μm 5:1 PBS (2.56 wt. % B141, 0.77 wt. % C161, 0.39 wt. % M071, 1.28 wt. % Y184, 8.0 wt. % IR1117), 2 μm 5:1 Y184 (12.5 wt. % Y184, 8.0 wt. % IR 1117) particles in the entries 21-24 of Table 3 above.(the numeric ratio is weight ratio of PMMA-BMA B-805 copolymer to colorant in the particle)

[3] = Surfactant-based extractable test (dye leaching into 1% SDS); assay type: physicochemical
Protocol: Dried particles (50 mg) were added to 3 mL of 1% sodium dodecyl sulfate to form a dispersion. The dispersion was sonicated for approximately 1 hour. The dispersion was centrifuged, and the supernatant component was withdrawn and filtered through a […] syringe filter. The absorbance spectrum of the filtrate was measured from 400-1300 nm using Shimadzu UV-3600 UV/VIS/NIR Spectrophotometer in a 1 cm cell.
The amount of the dye leached is calculated as in 2b above by applying Beer's law (Eq. 1) to give leachate concentrations. Leaching reduction is defined as the percentage of dye leached from coated particles when compared to uncoated particles of the same structure.
Portions of these particles were coated with several different shell thicknesses as described in Example lb above and tested for effectiveness in preventing dye leaching following the surfactant-based extractable test described in section Example 3b. […]

[4] = cited from earlier work
[5] = cited from earlier work; remark: listed apart in the source
[6] = 2 μm 5% PB5 particles, 25% VTMS shell, fluence 0 J/cm^2 (no laser)
[7] = 2 μm 5% PB5 particles, 1064 nm laser, fluence 3.51 J/cm^2
[8] = 2 μm 5% PB5 particles, 1064 nm laser, fluence 4.28 J/cm^2
[9] = 2 μm 5% PB5 particles, 1064 nm laser, fluence 5.09 J/cm^2
[10] = 2 μm 7:1 M071 particles, 25% VTMS shell, fluence 0 J/cm^2 (no laser)
[11] = 2 μm 7:1 M071 particles, 1064 nm laser, fluence 2.46 J/cm^2
[12] = 2 μm 7:1 M071 particles, 1064 nm laser, fluence 3.03 J/cm^2
[13] = 2 μm 7:1 M071 particles, 1064 nm laser, fluence 3.51 J/cm^2
[14] = 2 μm 7:1 M071 particles, 1064 nm laser, fluence 4.28 J/cm^2
[15] = 2 μm 7:1 M071 particles, 1064 nm laser, fluence 5.09 J/cm^2
[16] = Table 7B: 0.5 μm 2:1 PB4 particles with a 25% VTMS shell vs uncoated

Compound: 3,6-bis(2,3-dihydro-1H-indol-1-yl)-9-[2-[[[(1,1-dimethylethoxy)carbonyl]methylamino]sulfonyl]phenyl]-xanthylium [C161]
IC30 (70% viability) [1]: 14.65 μM^a | IC30 (70% viability) ([1]; listed as Cyan dye): about 14 μM

Compound: 3,6-bis[(2-chlorophenyl)methylamino]-9-[2-[[[(1,1-dimethylethoxy)carbonyl]methylamino]sulfonyl]phenyl]-xanthylium [M071]
IC30 (70% viability) [1]: 63.23 μM^a | IC30 (70% viability) ([1]; listed as Magenta): about 61 μM | % Reduction [2, 6]: 0% | Abs [2, 6]: 0.023 | % Reduction [2, 7]: 30% | Abs [2, 7]: 0.016 | % Reduction [2, 8]: 30% | Abs [2, 8]: 0.016 | % Reduction [2, 9]: 30% | Abs [2, 9]: 0.016 | % Reduction [2, 10]: 0% | Abs [2, 10]: 0.207 | % Reduction [2, 11]: 23% | Abs [2, 11]: 0.159 | % Reduction [2, 12]: 30% | Abs [2, 12]: 0.146 | % Reduction [2, 13]: 34% | Abs [2, 13]: 0.137 | % Reduction [2, 14]: 47% | Abs [2, 14]: 0.109 | % Reduction [2, 15]: 43% | Abs [2, 15]: 0.119 | fluence at which the dye decay levels off ([2]; 1064 nm laser, particles in gelatin): 4.28 J/cm^2 | decay (reduction) after laser irradiation ([2]; M071 particles, 1064 nm laser, fluences 2.46 to 5.09 J/cm^2): about 50%

Compound: 6-(dibutylamino)-9-[2-[[[(1,1-dimethylethoxy)carbonyl](methylsulfonyl)amino]methyl]phenyl]-3-methyl-2-(phenylamino)-xanthylium [B141]
IC30 (70% viability) [1]: 61.22 μM^a | IC30 (70% viability) ([1]; listed as Black): about 61 μM

Leachate concentration ([3]; Table 7B: 0.5 μm 2:1 PB4 particles with a 25% VTMS shell): 1.2 µM | Leaching reduced to [3, 16]: 1.4% | Reduction Factor [3, 16]: 72.6 | Leachate concentration ([3]; Table 7B: 0.5 μm 2:1 PB4 particles, uncoated particle): 87.1 µM
Compound: 9-[2-[[[(1,1-dimethylethoxy)carbonyl]methylamino]sulfonyl]phenyl]-3,6-diphenoxy-xanthylium [Y161]

Compound: NC(=O)CN(CC(=O)O)CC(=O)O [ADA, 2-[(2-amino-2-oxoethyl)-(carboxymethyl)amino]acetic acid]
pKa at 20° C. [4]: 6.62

Compound: CC(C)(CO)NCCCCS(=O)(=O)O [AMPB]
pKa at 20° C. [4]: 8.8

Compound: O=S(=O)(O)CCCNC1CCCCC1 [CAPS]
pKa at 20° C. [4]: 10.4

Compound: C[N+](C)(C)CCN [Cholamine chloride]
pKa at 20° C. [4]: 7.10 | Solubility in water at 0° C. ([5]; (as HCl)): 4200 mM

Compound: NCC(N)=O [Glycinamide]
pKa at 20° C. [4]: 8.2 | Solubility in water at 0° C. ([5]; (as HCl)): 6400 mM (≈ 474 mg/mL)

Compound: O=S(=O)(O)CCCN1CCN(CCO)CC1 [HEPPS, 3-[4-(2-Hydroxyethyl)piperazin-1-yl]propane-1-sulfonic acid]
pKa at 20° C. [4]: 8.1 | Solubility in water at 0° C. [5]: Large

Compound: O=S(=O)(O)CC(O)CN1CCN(CCO)CC1 (stereo not shown) [HEPPSO]
Solubility in water at 0° C. [5]: 2200 mM (≈ 590 mg/mL)

Compound: O=S(=O)(O)CC(O)CN1CCOCC1 (stereo not shown) [MOPSO, 2-hydroxy-3-morpholin-4-ylpropane-1-sulfonic acid]
Solubility in water at 0° C. [5]: 750 mM (≈ 169 mg/mL)

Compound: O=S(=O)(O)CCN1CCN(CCS(=O)(=O)O)CC1 [PIPES, piperazine-N,N′-bis(2-ethanesulfonic acid)]
pKa at 20° C. [4]: 6.82

Compound: O=S(=O)(O)CC(O)CNC(CO)(CO)CO (stereo not shown) [TAPSO, 3-[[1,3-dihydroxy-2-(hydroxymethyl)propan-2-yl]amino]-2-hydroxypropane-1-sulfonic acid]
Solubility in water at 0° C. [5]: 1000 mM (≈ 259 mg/mL)

Compound: O=S(=O)(O)CCCNC(CO)(CO)CO [TAPS]
Solubility in water at 0° C. [5]: Large
